According to ChEMBL document CHEMBL1201862, “PubChem BioAssay data set” (2004):
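Each compound was tested at five concentrations against cells in 96-well plates for 48 hours. Abbreviation: GI50, concentration required for 50% inhibition of growth.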 The source made the active and inactive calls. No stated cut-off is given here; in the data, active = GI50 up to about 1.1 µM and inactive = higher.

Tests used:
Test in all cases: DTP human tumour cell line panel, 48 h
SR = system: SR
SK-OV-3 = system: SK-OV-3
SNB-75 = system: SNB-75
CAKI-1 = system: CAKI-1
KM-20L2 = system: KM-20L2
OVCAR-5 = system: OVCAR-5
TK-10 = system: TK-10
HCT-116 = system: HCT-116
NCI-H522 = system: NCI-H522
SNB-19 = system: SNB-19
HCC 2998 = system: HCC 2998
SF-539 = system: SF-539
SK-MEL-28 = system: SK-MEL-28
OVCAR-3 = system: OVCAR-3
HT-29 = system: HT-29
MOLT-4 = system: MOLT-4
CCRF-CEM = system: CCRF-CEM
OVCAR-8 = system: OVCAR-8

Measured: GI50

O=C(O)/C=C/C(=O)N1C/C(=C\c2ccccc2)C(=O)/C(=C/c2ccccc2)C1
inactive: SR 3.72 µM | SK-OV-3 21.3 µM | SNB-75 9.84 µM | CAKI-1 15.1 µM | KM-20L2 5.9 µM | OVCAR-5 17.9 µM | TK-10 10.3 µM | HCT-116 1.82 µM | NCI-H522 1.9 µM | SNB-19 11.3 µM | HCC 2998 6.67 µM | SF-539 10.8 µM | SK-MEL-28 6.49 µM | OVCAR-3 7.26 µM | HT-29 7.76 µM | MOLT-4 2.81 µM | CCRF-CEM 2.36 µM | OVCAR-8 2.7 µM

Cn1c(=O)c2c(nc3n2CCC(=O)N3)n(C)c1=O
inactive: SR > 100 µM | SK-OV-3 > 100 µM | CAKI-1 > 100 µM | KM-20L2 > 100 µM | OVCAR-5 > 100 µM | TK-10 > 100 µM | NCI-H522 > 100 µM | SNB-19 > 100 µM | SF-539 > 100 µM | SK-MEL-28 > 100 µM | HT-29 > 100 µM | MOLT-4 > 100 µM | CCRF-CEM > 100 µM | OVCAR-8 > 100 µM

CCOC(=O)C(CCC(N)=O)(CCC(=O)OC)C(=O)OCC
inactive: SR > 100 µM | SK-OV-3 > 100 µM | SNB-75 > 100 µM | CAKI-1 > 100 µM | KM-20L2 > 100 µM | OVCAR-5 > 100 µM | TK-10 > 100 µM | HCT-116 > 100 µM | NCI-H522 > 100 µM | SNB-19 > 100 µM | HCC 2998 > 100 µM | SF-539 > 100 µM | SK-MEL-28 > 100 µM | OVCAR-3 > 100 µM | HT-29 > 100 µM | MOLT-4 > 100 µM | OVCAR-8 > 100 µM

CCOC(=O)NC(=O)c1cn(CCN2CCN(C(=O)CNC(=O)CNC(=O)Cn3cc(C(=O)NC(=O)OCC)c(=O)[nH]c3=O)CC2)c(=O)[nH]c1=O
inactive: SR > 100 µM | SK-OV-3 > 100 µM | SNB-75 > 100 µM | CAKI-1 > 100 µM | KM-20L2 > 100 µM | OVCAR-5 > 100 µM | TK-10 > 100 µM | HCT-116 > 100 µM | NCI-H522 > 100 µM | SNB-19 > 100 µM | HCC 2998 > 100 µM | SF-539 > 100 µM | SK-MEL-28 > 100 µM | OVCAR-3 > 100 µM | HT-29 > 100 µM | MOLT-4 > 100 µM | CCRF-CEM > 100 µM | OVCAR-8 > 100 µM

Cc1ccc(C)c(NC(=O)CC/C(=N\NC(=O)c2c(O)ccc3ccccc23)C(C)C(=O)c2ccc(O)cc2)c1 (configuration not stated)
inactive: SR 27.8 µM | SNB-75 20.2 µM | CAKI-1 65.2 µM | KM-20L2 15.1 µM | OVCAR-5 37.5 µM | TK-10 > 100 µM | HCT-116 57.4 µM | NCI-H522 19.9 µM | SNB-19 11.6 µM | HCC 2998 44.6 µM | SF-539 30.7 µM | SK-MEL-28 49 µM | OVCAR-3 23.3 µM | HT-29 46.9 µM | MOLT-4 27.2 µM | CCRF-CEM 15.2 µM | OVCAR-8 26.1 µM

N#C/C(=C\c1cc(OCc2ccccc2)c(OCc2ccccc2)cn1)C(N)=O
inactive: SK-OV-3 > 100 µM | SNB-75 36.7 µM | CAKI-1 > 100 µM | KM-20L2 > 100 µM | OVCAR-5 > 100 µM | TK-10 > 100 µM | HCT-116 35.5 µM | NCI-H522 19.1 µM | SNB-19 > 100 µM | HCC 2998 > 100 µM | SF-539 > 100 µM | SK-MEL-28 > 100 µM | OVCAR-3 > 100 µM | HT-29 > 100 µM | MOLT-4 23.3 µM | CCRF-CEM 32.1 µM | OVCAR-8 > 100 µM

COc1cc(C[P+](c2ccccc2)(c2ccccc2)c2ccccc2)cc(OC)c1OC
inactive: SR > 100 µM | SK-OV-3 > 100 µM | SNB-75 > 100 µM | CAKI-1 > 100 µM | KM-20L2 > 100 µM | OVCAR-5 > 100 µM | TK-10 > 100 µM | HCT-116 > 100 µM | NCI-H522 > 100 µM | SNB-19 > 100 µM | HCC 2998 > 100 µM | SF-539 > 100 µM | SK-MEL-28 > 100 µM | OVCAR-3 > 100 µM | HT-29 > 100 µM | CCRF-CEM > 100 µM | OVCAR-8 > 100 µM

O=C(Cc1nc2ccccc2s1)NC12CC3CC(CC(C3)C1)C2
inactive: SR > 100 µM | SK-OV-3 > 100 µM | SNB-75 > 100 µM | CAKI-1 > 100 µM | KM-20L2 > 100 µM | TK-10 > 100 µM | HCT-116 > 100 µM | NCI-H522 > 100 µM | SNB-19 > 100 µM | HCC 2998 > 100 µM | SF-539 > 100 µM | SK-MEL-28 > 100 µM | HT-29 > 100 µM | MOLT-4 > 100 µM | CCRF-CEM > 100 µM | OVCAR-8 > 100 µM

COc1cc(CNc2cnc3ccc(N)cc3n2)cc(OC)c1OC
inactive: SK-OV-3 > 100 µM | SNB-75 > 100 µM | CAKI-1 > 100 µM | KM-20L2 > 100 µM | OVCAR-5 > 100 µM | TK-10 > 100 µM | HCT-116 > 100 µM | NCI-H522 > 100 µM | SNB-19 > 100 µM | HCC 2998 72.4 µM | SF-539 > 100 µM | SK-MEL-28 > 100 µM | OVCAR-3 > 100 µM | HT-29 > 100 µM | MOLT-4 > 100 µM | CCRF-CEM > 100 µM | OVCAR-8 > 100 µM

OCC(O)C(O)C(O)c1nn(-c2ccc(F)cc2)c2nc3cc(Cl)c(Cl)cc3nc12 (configuration not stated)
inactive: SK-OV-3 23.3 µM | SNB-75 3.94 µM | CAKI-1 21.7 µM | KM-20L2 49.7 µM | OVCAR-5 > 100 µM | TK-10 21.5 µM | HCT-116 24.5 µM | NCI-H522 14.9 µM | SNB-19 18.3 µM | HCC 2998 29.4 µM | SF-539 13.9 µM | SK-MEL-28 16.8 µM | OVCAR-3 21.8 µM | HT-29 56 µM | MOLT-4 18.8 µM | CCRF-CEM 14.9 µM | OVCAR-8 11 µM

O=C(/C=C/c1c(O)ccc2ccccc12)c1ccccc1Cl
inactive: SK-OV-3 > 100 µM | SNB-75 25.3 µM | CAKI-1 81.5 µM | KM-20L2 > 100 µM | OVCAR-5 > 100 µM | TK-10 > 100 µM | HCT-116 21.2 µM | NCI-H522 26.7 µM | SNB-19 49.8 µM | HCC 2998 > 100 µM | SF-539 26.5 µM | SK-MEL-28 23 µM | OVCAR-3 26.1 µM | HT-29 46.5 µM | MOLT-4 33.4 µM | CCRF-CEM 17.3 µM | OVCAR-8 32 µM

NC1(CCCCCCCCCCC(=O)O)CNCCNCCNCCNC1
inactive: SR 22.7 µM | SK-OV-3 63.8 µM | CAKI-1 84.1 µM | KM-20L2 24.9 µM | OVCAR-5 16 µM | TK-10 31.2 µM | HCT-116 28.1 µM | NCI-H522 55.5 µM | SNB-19 18.5 µM | HCC 2998 15.2 µM | SF-539 54.1 µM | SK-MEL-28 > 100 µM | OVCAR-3 59 µM | HT-29 40.8 µM | MOLT-4 30.2 µM | CCRF-CEM 22.6 µM | OVCAR-8 67.3 µM
